Laboratory results: US12357596B2, “Compounds for prevention and treatment of obesity and related disorders” (ABREXA PHARMACEUTICALS, INC., priority 2019, dated 2025)

Tests used:
[1] = Oral gavage study up to 28 days at 0, 30, 100 and 300 mg/kg/day (body weight, food consumption); assay type: in vivo, beagle dogs
Description: J147 or vehicle was administered once daily to beagle dogs via oral gavage for up to 28 days at a daily dose of 0, 30, 100 and 300 mg/kg. J174 was prepared in a vehicle formulation comprising 5% ethanol, 5% DMSO and 90% corn oil (v/v/v). Block Lab Diet (Certified Canine Diet #5007, PMI Nutrition International, Inc.) was offered via limited feedings, except during designated periods. The animals were offered food 2 hours post-dose on each dosing day for 2 to 5 hours. Food was offered 2 to 5 hours/day during the acclimation period and during the recovery period. Tap water was available ad libitum via an automatic watering system. The study protocol is shown below in Table 9.

[2] = Toxicokinetics in satellite animals of the 28-day oral gavage study (plasma, Day 1); assay type: in vivo, Sprague-Dawley rats; conditions: Sprague-Dawley, rat, Day 1, 30 mg/kg/day (NOAEL), for information only (ISR failed)
Description: J147 or vehicle was administered once daily to Sprague-Dawley rats via oral gavage for 28 consecutive days at a daily dose of 0, 30, 100 or 300 mg/kg. J174 was prepared in a vehicle formulation comprising 5% ethanol, 5% DMSO and 90% corn oil (v/v/v). Certified rodent diet and water was available ad libitum. Groups 1-4 contained 10 animals/sex/group. Groups 1 (control) and 4 (high dose) also included an additional 5 animals/sex/group for use as recovery animals. The recovery animals were maintained on study for a 14-day postdosing recovery period. Animals in Groups 1-4 were monitored for morbidity and mortality, clinical signs, detailed clinical observations, body weight, food consumption, ophthalmologic parameters, neurobehavioral assessment consisting of a Functional Observational Battery (FOB) and a motor activity test, hematology, coagulation, serum chemistry, and urinalysis parameters. Postmortem assessment included necropsy, measurement of selected organ weights, and microscopic evaluation of a standard set of tissues. Plasma samples for bioanalysis were collected on Days 1 and 28 from satellite toxicokinetic animals in Groups 5 through 8. Animals in these groups were euthanized following the last blood sampling and carcasses were discarded without examination. The study protocol is shown below in Table 1.
Additionally, analysis of Day 28 samples also occurred outside the known long-term stability (LTS) range of the validated bioanalytical method. Thus, the bioanalytical and toxicokinetic results for J147 are considered to be for information only. The bioanalytical and toxicokinetic analysis results should also be considered in light of the fact that Day 28 samples were analyzed outside of their LTS.
Given that there was clear evidence of toxicity at the mid and high dose groups, the Study Director believes that this study met the objective of examining the toxicity profile of J147. […] Under the conditions of this study, the no-observed-adverse-effect-level (NOAEL) for J147 was considered to be 30 mg/kg/day. […] Cmax and AUC0-last values should be considered in light of the caveats mentioned in the preceding paragraph. The lowest-observed-adverse-effect-level (LOAEL) is 100 mg/kg/day in both sexes based on test article-related decreases in body weight/body weight gain and food consumption, decreased activity, decreases in measures of red blood cell mass, decreased prothrombin time, decreased serum glucose and triglycerides, decreased thymus weights, and single cell necrosis of pancreatic acinar cells in males.

[3] = dogs, all J147-treated groups (30, 100, 300 mg/kg/day), both sexes
[4] = female dogs, 30 mg/kg/day, Day 28
[5] = female dogs, 100 mg/kg/day, Day 28
[6] = female dogs, 300 mg/kg/day, Day 21 versus the Day 28 control value
[7] = male dogs, 30 mg/kg/day, Day 28
[8] = male dogs, 100 mg/kg/day, Day 28
[9] = male dogs, 300 mg/kg/day, Day 22 versus the Day 28 control value

With `COc1cccc(/C=N/N(C(=O)C(F)(F)F)c2ccc(C)cc2C)c1` [J147] as the compound, how does the “Body weight and body weight gain compared to the vehicle-treated control group” value [1, 3] read?
The value was “decreased”.

And the “Food consumption compared to the vehicle-treated control group” value [1, 3]?
The value was “decreased”.

And the “Decrease of group mean body weight” value [1, 4]?
Its value is 19%.

What about the “Decrease of group mean food consumption” value [1, 4] of the same compound?
Its value is 45%.

What about the “Decrease of group mean body weight” value [1, 5] of the same compound?
Its value is 21%.

What about the “Decrease of group mean food consumption” value [1, 5] of the same compound?
Its value is 48%.

And the “Decrease of group mean body weight” value [1, 6]?
Its value is 23%.

What about the “Decrease of group mean food consumption” value [1, 6] of the same compound?
Its value is 38%.

And the “Decrease of group mean body weight” value [1, 7]?
Its value is 23%.

And the “Decrease of group mean food consumption” value [1, 7]?
The value was 31%.

What about the “Decrease of group mean body weight” value [1, 8] of the same compound?
The value was 26%.

And the “Decrease of group mean food consumption” value [1, 8]?
Its value is 39%.

What about the “Decrease of group mean body weight” value [1, 9] of the same compound?
Its value is 18%.

What about the “Decrease of group mean food consumption” value [1, 9] of the same compound?
Its value is 48%.

What about the AUC(0-t) ([2]; female rats) of the same compound?
The AUC(0-t) was 233 ng·h/mL.

What about the Cmax ([2]; female rats) of the same compound?
Its Cmax is 50.8 ng/mL.

What about the AUC(0-t) ([2]; male rats) of the same compound?
Its AUC(0-t) is 835 ng·h/mL.

And the Cmax ([2]; male rats)?
The Cmax was 146 ng/mL.
